Results reported in patent US20230339937A1, “CONDENSED RING COMPOUNDS THAT INHIBIT H-PGDS” (SATO PHARMACEUTICAL CO., LTD., priority 2020, published 2023).

Biological target: T1, Recombinant human H-PGDS (Homo sapiens, UniProt O60760)
T1 construct: made in house; host or cells: E. coli
Test: H-PGDS inhibitory activity (prostaglandin D2 production from prostaglandin H2, measured by LC-MS/MS)
Format: biochemical
Settings: recombinant human H-PGDS 1.0 nM expressed in E. coli; prostaglandin H2 25 μM; preincubated 15 minutes on ice, reacted on ice for 1 minute; concentration that inhibits prostaglandin D2 production by 50%
How it was run: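 PGD2 formed from 25 µM prostaglandin H2 during a 1-min on-ice reaction was measured by LC-MS/MS after an FeCl2/citric acid stop. The enzyme was 1.0 nM E. coli-expressed human H-PGDS in Tris-HCl pH 8.0 buffer with MgCl2, reduced glutathione and γ-globulin, preincubated with compound for 15 min on ice. Production was normalised to DMSO controls minus the no-enzyme background.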

T1 sequence (O60760 whole entry): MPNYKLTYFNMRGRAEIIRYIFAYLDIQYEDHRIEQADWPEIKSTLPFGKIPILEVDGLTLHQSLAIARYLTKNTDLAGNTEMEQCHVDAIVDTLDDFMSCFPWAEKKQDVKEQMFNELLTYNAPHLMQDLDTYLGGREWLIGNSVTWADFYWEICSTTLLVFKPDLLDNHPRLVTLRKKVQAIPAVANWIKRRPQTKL

SMILES	IC50 [nM]
CC(C)n1nnnc1N1CCC(NC(=O)c2ccc(-c3nccc4occc34)cc2)CC1 [Example 242, 4-(furo[3,2-c]pyridin-4-yl)-N-[1-(1-isopropyl-1H-tetrazol-5-yl)piperidin-4-yl]benzamide]	2
O=C(NC1CC2CCC(C1)C2O)c1ccc(-c2nccc3occc23)cc1 (stereo not shown) [Example 281, 4-(furo[3,2-c]pyridin-4-yl)-N-(8-hydroxybicyclo[3.2.1]octan-3-yl)benzamide]	2
CCCCNC(=O)c1ccc(-c2nccc3[nH]ccc23)cc1 [Example 7, N-butyl-4-(1H-pyrrolo[3,2-c]pyridin-4-yl)benzamide]	1.4
O=C(N[C@H]1CC[C@H](N2CCCC2=O)CC1)c1ccc(-c2nccc3occc23)cc1 [Example 299, 4-(furo[3,2-c]pyridin-4-yl)-N-[trans-4-(2-oxopyrrolidin-1-yl)cyclohexyl]benzamide]	4
CC[C@]1(O)CC[C@@H](NC(=O)c2ccc(-c3nccc4occc34)cc2)CC1 [Example 290, N-(cis-4-ethyl-4-hydroxycyclohexyl)-4-(furo[3,2-c]pyridin-4-yl)benzamide]	1.3
O=C(NC1CC2(C1)CN(c1ncccn1)C2)c1ccc(-c2nccc3occc23)cc1 [Example 210, 4-(furo[3,2-c]pyridin-4-yl)-N-[2-(pyrimidin-2-yl)-2-azaspiro[3.3]heptan-6-yl]benzamide]	3.5
O=C(NC1CCCC1)c1ccc(-c2nccc3occc23)cc1 [Example 87, N-cyclopenthyl-4-(furo[3,2-c]pyridin-4-yl)benzamide]	12
O=C(N[C@@H]1CC[C@H](O)C1)c1ccc(-c2nccc3occc23)cc1 (relative stereo) [Example 267, 4-(furo[3,2-c]pyridin-4-yl)-N-(cis-3-hydroxycyclopenthyl)benzamide]	3.1
COC(=O)c1ccnc(N2CCC(NC(=O)c3ccc(-c4nccc5occc45)cc3)CC2)n1 [Example 167, Methyl 2-{4-[4-(furo[3,2-c]pyridin-4-yl)benzamide]piperidin-1-yl}pyrimidine-4-carboxylate]	1.2
O=C(N[C@H]1CC[C@H](N2CC(F)(F)C2)CC1)c1ccc(-c2nccc3occc23)cc1 [Example 304, N-[trans-4-(3,3-difluoroazetidin-1-yl)cyclohexyl]-4-(furo[3,2-c]pyridin-4-yl)benzamide]	9.2
NC(=O)c1cnc(N2CC[C@H](NC(=O)c3ccc(-c4nccc5occc45)cc3)C2)nc1 [Example 202, (S)-2-(3-[4-(furo[3,2-c]pyridin-4-yl)benzamide]pyrrolidin-1-yl)pyrimidine-5-carboxamide]	1.5
O=C(NC1CCN(c2cnccn2)CC1)c1ccc(-c2nccc3occc23)cc1 [Example 145, 4-(furo[3,2-c]pyridin-4-yl)-N-[1-(pyrazin-2-yl)piperidin-4-yl]benzamide]	1.2
O=C(N[C@H]1CCN(c2ncccn2)C1)c1ccc(-c2nccc3occc23)cc1 [Example 191, (S)-4-(furo[3,2-c]pyridin-4-yl)-N-[1-(pyrimidin-2-yl)pyrrolidin-3-yl]benzamide]	0.63
Cc1nnnn1[C@H]1CC[C@H](NC(=O)c2ccc(-c3nccc4occc34)cc2)CC1 [Example 297, 4-(furo[3,2-c]pyridin-4-yl)-N-[trans-4-(5-methyl-1H-tetrazol-1-yl)cyclohexyl]benzamide]	1.9
O=C(N[C@@H]1CCN(c2ncccn2)C1)c1ccc(-c2nccc3occc23)cc1 [Example 192, (R)-4-(furo[3,2-c]pyridin-4-yl)-N-[1-(pyrimidin-2-yl)pyrrolidin-3-yl]benzamide]	7.7
O=C(NC[C@H]1CC[C@@H](O)CC1)c1ccc(-c2nccc3occc23)cc1 [Example 114, 4-(furo[3,2-c]pyridin-4-yl)-N-[(cis-4-hydroxycyclohexyl)methyl]benzamide]	25
C=Cc1cc2occc2c(-c2ccc(C(=O)N[C@H]3CC[C@H](C(C)(C)O)CC3)cc2)n1 [Example 313, N-[trans-4-(2-hydroxypropan-2-yl)cyclohexyl]-4-(6-vinylfuro[3,2-c]pyridin-4-yl)benzamide]	169
CC1(C)CC(O)CC(NC(=O)c2ccc(-c3nccc4occc34)cc2)C1 (stereo not shown) [Example 280, 4-(furo[3,2-c]pyridin-4-yl)-N-(5-hydroxy-3,3-dimethylcyclohexyl)benzamide]	2.2
CC(=O)NCCNC(=O)c1ccc(-c2nccc3[nH]ccc23)cc1 [Example 28, N-(2-acetamidoethyl)-4-(1H-pyrrolo[3,2-c]pyridin-4-yl)benzamide]	1.4
CCc1cnc(-c2ccc(C(=O)N[C@H]3CC[C@H](C(C)(C)O)CC3)cc2)c2ccoc12 [Example 138, 4-(7-ethylfuro[3,2-c]pyridin-4-yl)-N-[trans-4-(2-hydroxypropan-2-yl)cyclohexyl]benzamide]	15

SMILES	IC50 [nM]
O=C(NC1CCN(c2nccs2)CC1)c1ccc(-c2nccc3occc23)cc1 [Example 101, 4-(furo[3,2-c]pyridin-4-yl)-N-[1-(thiazol-2-yl)piperidin-4-yl]benzamide]	1
Cc1cc2occc2c(-c2ccc(C(=O)N[C@H]3CC[C@](C)(O)CC3)cc2)n1 [Example 344, N-(trans-4-hydroxy-4-methylcyclohexyl)-4-(6-methylfuro[3,2-c]pyridin-4-yl)benzamide]	1.7
O=C(N[C@H]1CC[C@H](O)CC1)c1ccc(-c2nccc3sccc23)cc1 [Example 341, N-(trans-4-hydroxycyclohexyl)-4-(thieno[3,2-c]pyridin-4-yl)benzamide]	2.4
CCOC(=O)c1cnc(N2CCC(NC(=O)c3ccc(-c4nccc5occc45)cc3)CC2)o1 [Example 254, ethyl 2-{4-[4-(furo[3,2-c]pyridin-4-yl)benzamide]piperidin-1-yl]oxazole-5-carboxylate]	4
O=C(N[C@H]1CCN(c2ncccn2)C1)c1ccc(-c2nccc3occc23)c(F)c1 [Example 328, (S)-3-fluoro-4-(furo[3,2-c]pyridin-4-yl)-N-[1-(pyrimidin-2-yl)pyrrolidin-3-yl]benzamide]	0.74
CC(C)(O)[C@H]1CC[C@H](NC(=O)c2ccc(-c3nc(F)cc4occc34)cc2)CC1 [Example 316, 4-(6-fluorofuro[3,2-c]pyridin-4-yl)-N-[trans-4-(2-hydroxypropan-2-yl)cyclohexyl]benzamide]	1.5
O=C(NC1CCNCC1)c1ccc(-c2nccc3occc23)cc1 [Example 142, 4-(furo[3,2-c]pyridin-4-yl)-N-(piperidin-4-yl)benzamide]	3.4
O=C(NC1CCN(c2ncc(CO)o2)CC1)c1ccc(-c2nccc3occc23)cc1 [Example 255, 4-(furo[3,2-c]pyridin-4-yl)-N-{1-[5-(hydroxymethyl)oxazol-2-yl]piperidin-4-yl}benzamide]	1.5
COCCn1cc(CNC(=O)c2ccc(-c3nccc4[nH]ccc34)cc2)cn1 [Example 48, N-{[1-(2-methoxyethyl)-1H-pyrazol-4-yl]methyl}-4-(1H-pyrrolo[3,2-c]pyridin-4-yl)benzamide]	0.72
NS(=O)(=O)c1cccc(NC(=O)c2ccc(-c3nccc4occc34)cc2)c1 [Example 105, 4-(furo[3,2-c]pyridin-4-yl)-N-(3-sulfamoylphenyl) benzamide]	2.3
O=C(Nc1ccc(N2CCC(C(=O)N3CCOCC3)CC2)c(F)c1)c1ccc(-c2nccc3occc23)cc1 [Example 223, N-{3-fluoro-4-[4-(morpholine-4-carbonyl)piperidin-1-yl]phenyl}-4-(furo[3,2-c]pyridin-4-yl)benzamide]	5.3
O=C(N[C@@H]1COCCN(c2ncccn2)C1)c1ccc(-c2nccc3occc23)cc1 [Example 224, (S)-4-(furo[3,2-c]pyridin-4-yl)-N-[4-(pyrimidin-2-yl)-1,4-oxazepan-6-yl]benzamide]	1.8
CC(C)(O)[C@H]1CC[C@H](NC(=O)c2ccc(-c3nc(CO)cc4occc34)c(F)c2)CC1 [Example 322, 3-fluoro-4-[6-(hydroxymethyl)furo[3,2-c]pyridin-4-yl]-N-[trans-4-(2-hydroxypropan-2-yl)cyclohexyl]benzamide]	3.2
CC(C)(O)[C@H]1CC[C@H](NC(=O)c2ccc(-c3nccc4occc34)c(F)c2)CC1 [Example 125, 3-fluoro-4-(furo[3,2-c]pyridin-4-yl)-N-[trans-4-(2-hydroxypropan-2-yl)cyclohexyl]benzamide]	2.2
O=C(NC(CO)c1ccccn1)c1ccc(-c2nccc3occc23)cc1 (stereo not shown) [Example 220, 4-(furo[3,2-c]pyridin-4-yl)-N-[2-hydroxy-1-(pyridin-2-yl)ethyl]benzamide]	68
CCCCCCNC(=O)c1ccc(-c2nccc3occc23)cc1 [Example 76, 4-(furo[3,2-c]pyridin-4-yl)-N-hexylbenzamide]	13
O=C(NCc1ccccc1)c1ccc(-c2nccc3[nH]ccc23)cc1 [Example 8, N-benzyl-4-(1H-pyrrolo[3,2-c]pyridin-4-yl)benzamide]	1
CC(C)(O)[C@H]1CC[C@H](NC(=O)c2ccc(-c3nccc4sccc34)cc2)CC1 [Example 63, N-[trans-4-(2-hydroxypropan-2-yl)cyclohexyl]-4-(thieno[3,2-c]pyridin-4-yl)benzamide]	1.5
CCOCCNC(=O)c1ccc(-c2nccc3occc23)cc1 [Example 80, N-(2-ethoxyethyl)-4-(furo[3,2-c]pyridin-4-yl)benzamide]	32
CC(C)(O)c1cnc(N2CC[C@H](NC(=O)c3ccc(-c4nccc5occc45)cc3)C2)nc1 [Example 200, (S)-4-(furo[3,2-c]pyridin-4-yl)-N-{1-[5-(2-hydroxypropan-2-yl)pyrimidin-2-yl]pyrrolidin-3-yl}benzamide]	1.1
